Measured values from PubChem BioAssay (NCI).
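Where inhibition never reached the appropriate level, the endpoint shown equals the highest concentration tested. Otherwise, values were interpolated linearly from a five-concentration, 48-hour dose response in 96-well plates. GI50 marks 50% less growth. At the TGI there is no net growth.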

Assays:
Assay in all cases: NCI-60 cell line screen, 48 h
[1] = system: HOP-62 NSCLC
[2] = system: HT29 colon
[3] = system: U251 CNS
[4] = system: SF-539 CNS
[5] = system: NCI/ADR-RES ovarian
[6] = system: SK-MEL-5 melanoma
[7] = system: SK-OV-3 ovarian
[8] = system: PC-3 prostate
[9] = system: 786-0 renal
[10] = system: ACHN renal
[11] = system: SK-MEL-28 melanoma
[12] = system: SF-295 CNS
[13] = system: UO-31 renal
[14] = system: KM12 colon
[15] = system: HCC-2998 colon
[16] = system: RXF 393 renal
[17] = system: OVCAR-8 ovarian
[18] = system: UACC-62 melanoma
[19] = system: HOP-92 NSCLC
[20] = system: CCRF-CEM leukemia
[21] = system: HL-60(TB) leukemia
[22] = system: IGROV1 ovarian
[23] = system: EKVX NSCLC
[24] = system: LOX IMVI melanoma
[25] = system: MALME-3M melanoma
[26] = system: SN12C renal
[27] = system: SK-MEL-2 melanoma
[28] = system: K-562 leukemia
[29] = system: COLO 205 colon
[30] = system: HCT-15 colon
[31] = system: NCI-H226 lung
[32] = system: NCI-H23 lung
[33] = system: NCI-H522 lung
[34] = system: MDA-MB-435
[35] = system: SNB-75 CNS
[36] = system: MDA-MB-231 breast
[37] = system: A549 NSCLC
[38] = system: M14 melanoma
[39] = system: OVCAR-5 ovarian
[40] = system: T-47D breast
[41] = system: MOLT-4 leukemia
[42] = system: UACC-257 melanoma
[43] = system: HCT-116 colon
[44] = system: MCF7 breast
[45] = system: DU-145 prostate
[46] = system: SNB-19 CNS
[47] = system: CAKI-1 renal
[48] = system: OVCAR-4 ovarian
[49] = system: SF-268 CNS
[50] = system: OVCAR-3 ovarian
[51] = system: SR leukemia
[52] = system: TK-10 renal
[53] = system: RPMI-8226 leukemia
[54] = system: BT-549 breast
[55] = system: HS 578T breast
[56] = system: SW-620 colon
[57] = system: NCI-H460 lung
[58] = system: A498 renal

SMILES: ICCC(c1ccccc1)(c1ccccc1)c1ccccc1
- GI50 [1]: 11.6 µM
- TGI [1]: 24 µM
- GI50 [2]: 2.34 µM
- TGI [2]: 9.07 µM
- GI50 [3]: 3.48 µM
- TGI [3]: 11.3 µM
- GI50 [4]: 3.61 µM
- TGI [4]: 16.1 µM
- GI50 [5]: 11.1 µM
- TGI [5]: 29.5 µM
- GI50 [6]: 3.23 µM
- TGI [6]: 11.2 µM
- GI50 [7]: 14.7 µM
- TGI [7]: 27.8 µM
- GI50 [8]: 4.32 µM
- TGI [8]: 19.4 µM
- GI50 [9]: 3.75 µM
- TGI [9]: 14.1 µM
- GI50 [10]: 12 µM
- TGI [10]: 24.8 µM
- GI50 [11]: 3.4 µM
- TGI [11]: 12.5 µM
- GI50 [12]: 2.02 µM
- TGI [12]: 5.07 µM
- GI50 [13]: 1.72 µM
- TGI [13]: 9.87 µM
- GI50 [14]: 4.45 µM
- TGI [14]: 15.4 µM
- GI50 [15]: 8.41 µM
- TGI [15]: 27.6 µM
- GI50 [16]: 8.9 µM
- TGI [16]: 22.8 µM
- GI50 [17]: 11.4 µM
- TGI [17]: 25.5 µM
- GI50 [18]: 2.46 µM
- TGI [18]: 5.74 µM
- GI50 [19]: 2.7 µM
- TGI [19]: 18.2 µM
- GI50 [20]: 3.56 µM
- TGI [20]: 16.3 µM
- GI50 [21]: 1.72 µM
- TGI [21]: 3.88 µM
- GI50 [22]: 4.17 µM
- TGI [22]: 16.6 µM
- GI50 [23]: 6.96 µM
- TGI [23]: 23.2 µM
- GI50 [24]: 4.16 µM
- TGI [24]: 19.2 µM
- GI50 [25]: 1.9 µM
- TGI [25]: 3.6 µM
- GI50 [26]: 12.2 µM
- TGI [26]: 27.2 µM
- GI50 [27]: 4.18 µM
- TGI [27]: 13.7 µM
- GI50 [28]: 1.67 µM
- TGI [28]: 4.93 µM
- GI50 [29]: 2.02 µM
- TGI [29]: 3.85 µM
- GI50 [30]: 3.56 µM
- TGI [30]: 15.5 µM
- GI50 [31]: 13.7 µM
- TGI [31]: 27.3 µM
- GI50 [32]: 13.4 µM
- TGI [32]: 31 µM
- GI50 [33]: 8.35 µM
- TGI [33]: 22.7 µM
- GI50 [34]: 2.14 µM
- TGI [34]: 6.72 µM
- GI50 [35]: 1.7 µM
- TGI [35]: 13 µM
- GI50 [36]: 4.41 µM
- TGI [36]: 19.8 µM
- GI50 [37]: 5.92 µM
- TGI [37]: 19.6 µM
- GI50 [38]: 1.92 µM
- TGI [38]: 3.72 µM
- GI50 [39]: 13.4 µM
- TGI [39]: 27.1 µM
- GI50 [40]: 14 µM
- TGI [40]: 34.1 µM
- GI50 [41]: 2.57 µM
- TGI [41]: 8.97 µM
- GI50 [42]: 1.7 µM
- TGI [42]: 3.35 µM
- GI50 [43]: 2.55 µM
- TGI [43]: 13.5 µM
- GI50 [44]: 10.6 µM
- TGI [44]: 26.7 µM
- GI50 [45]: 10.1 µM
- TGI [45]: 21.6 µM
- GI50 [46]: 14.4 µM
- TGI [46]: 31.1 µM
- GI50 [47]: 3.83 µM
- TGI [47]: 17.1 µM
- GI50 [48]: 11.6 µM
- TGI [48]: 30.8 µM
- GI50 [49]: 4.4 µM
- TGI [49]: 16.8 µM
- GI50 [50]: 3.85 µM
- TGI [50]: 15 µM
- GI50 [51]: 1.93 µM
- TGI [51]: 5 µM
- GI50 [52]: 14 µM
- TGI [52]: 30.7 µM
- GI50 [53]: 3.72 µM
- TGI [53]: 17.1 µM

SMILES: CC(=O)O[C@H]1CC[C@]2(C)[C@H]3CC=C4[C@@H]5CC(C)(C)CC[C@]5(C(=O)NCCNCCN)CC[C@@]4(C)[C@]3(C)CC[C@H]2C1(C)C
- GI50 [4]: 1.51 µM
- TGI [4]: 2.94 µM
- GI50 [5]: 1.65 µM
- TGI [5]: 3.65 µM
- GI50 [54]: 1.68 µM
- TGI [54]: 3.3 µM
- GI50 [8]: 1.1 µM
- TGI [8]: 2.43 µM
- GI50 [10]: 0.196 µM
- TGI [10]: 0.388 µM
- GI50 [11]: 1.71 µM
- TGI [11]: 3.23 µM
- GI50 [12]: 1.77 µM
- TGI [12]: 3.25 µM
- GI50 [13]: 1.28 µM
- TGI [13]: 2.76 µM
- GI50 [14]: 1.64 µM
- TGI [14]: 3.17 µM
- GI50 [15]: 0.624 µM
- TGI [15]: 2.12 µM
- GI50 [17]: 1.7 µM
- TGI [17]: 4.27 µM
- GI50 [26]: 1.67 µM
- TGI [26]: 3.23 µM
- GI50 [30]: 0.282 µM
- TGI [30]: 0.895 µM
- GI50 [34]: 1.34 µM
- TGI [34]: 2.65 µM
- GI50 [35]: 1.36 µM
- TGI [35]: 2.65 µM
- GI50 [39]: 1.64 µM
- TGI [39]: 3.09 µM
- GI50 [45]: 1.29 µM
- TGI [45]: 2.74 µM
- GI50 [47]: 1.25 µM
- TGI [47]: 2.59 µM
- GI50 [53]: 1.2 µM
- TGI [53]: 3.52 µM

SMILES: COC(=O)n1c(=O)n(-c2ccccc2)c(=O)n1C(=O)Nc1ccccc1
- TGI [1]: > 100 µM
- TGI [2]: > 100 µM
- TGI [3]: > 100 µM
- TGI [5]: > 100 µM
- TGI [6]: > 100 µM
- TGI [54]: > 100 µM
- TGI [7]: > 100 µM
- TGI [8]: > 100 µM
- TGI [9]: > 100 µM
- TGI [10]: > 100 µM
- TGI [55]: > 100 µM
- TGI [11]: > 100 µM
- TGI [12]: > 100 µM
- TGI [13]: > 100 µM
- TGI [14]: > 100 µM
- TGI [15]: > 100 µM
- TGI [16]: > 100 µM
- TGI [17]: > 100 µM
- TGI [18]: > 100 µM
- TGI [19]: > 100 µM
- TGI [20]: > 100 µM
- TGI [21]: > 100 µM
- TGI [22]: > 100 µM
- TGI [23]: > 100 µM
- TGI [24]: > 100 µM
- TGI [25]: > 100 µM
- TGI [56]: > 100 µM
- TGI [27]: > 100 µM
- TGI [28]: > 100 µM
- TGI [29]: > 100 µM
- TGI [30]: > 100 µM
- TGI [31]: > 100 µM
- TGI [32]: > 100 µM
- TGI [33]: > 100 µM
- TGI [34]: > 100 µM
- TGI [35]: > 100 µM
- TGI [36]: > 100 µM
- TGI [37]: > 100 µM
- TGI [38]: > 100 µM
- TGI [39]: > 100 µM
- TGI [40]: > 100 µM
- TGI [41]: > 100 µM
- TGI [42]: > 100 µM
- TGI [43]: > 100 µM
- TGI [57]: > 100 µM
- TGI [45]: > 100 µM
- TGI [46]: > 100 µM
- TGI [47]: > 100 µM
- TGI [48]: 87.8 µM
- TGI [49]: > 100 µM
- TGI [50]: > 100 µM
- TGI [51]: > 100 µM
- TGI [52]: > 100 µM
- TGI [53]: > 100 µM
- TGI [58]: > 100 µM
